The target of the experiment is T1, LMW-PTP (recombinant isoforms IF-A and IF-B) (Homo sapiens, UniProt P24666).
T1 construct: gene ACP1; purified recombinant human LMW-PTP, isoform A (IF-A) and isoform B (IF-B)
T1 sequence (P24666 2-158): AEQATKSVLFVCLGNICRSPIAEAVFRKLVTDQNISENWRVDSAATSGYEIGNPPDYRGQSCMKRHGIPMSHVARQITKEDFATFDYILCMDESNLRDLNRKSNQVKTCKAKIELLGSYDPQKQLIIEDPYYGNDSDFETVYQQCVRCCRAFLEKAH
The experiment is described as follows: p-nitrophenylphosphate hydrolysis kinetics with purified recombinant enzyme, double reciprocal plots. The class given is biochemical.

With `O=c1c(O)c(-c2ccc(O)cc2O)oc2cc(O)cc(O)c12` [Morin], the Ki result is recorded as “micromolar range”.
